In ChEMBL document CHEMBL1201862, “PubChem BioAssay data set” (2004):
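Following 48 hours of exposure in 96-well plates, responses at five concentrations were used to interpolate endpoints linearly. GI50 marks 50% less growth.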 Activity calls are given as the source filed them. Cut-off read from the data, not from the text of the source: active = GI50 up to about 1.1 µM and inactive = higher.

Experiments:
Assay in all cases: NCI-60 cell line screen, 48 h
SNB-19 = tested on: SNB-19
NCI/ADR-RES = tested on: NCI/ADR-RES
OVCAR-3 = tested on: OVCAR-3
PC-3 = tested on: PC-3
SK-OV-3 = tested on: SK-OV-3
HCC 2998 = tested on: HCC 2998
NCI-H522 = tested on: NCI-H522
IGROV-1 = tested on: IGROV-1
DU-145 = tested on: DU-145
MOLT-4 = tested on: MOLT-4
BT-549 = tested on: BT-549
Hs-578T = tested on: Hs-578T
T47D = tested on: T47D
MCF7 = tested on: MCF7
HT-29 = tested on: HT-29
HCT-116 = tested on: HCT-116
HOP-92 = tested on: HOP-92
SK-MEL-28 = tested on: SK-MEL-28
M14 = tested on: M14
K562 = tested on: K562
RPMI-8226 = tested on: RPMI-8226
MDA-MB-435 = tested on: MDA-MB-435
Malme-3M = tested on: Malme-3M
SF-295 = tested on: SF-295
NCI-H460 = tested on: NCI-H460
MDA-N = tested on: MDA-N
SF-539 = tested on: SF-539
SF-268 = tested on: SF-268
786-0 = tested on: 786-0
SW-620 = tested on: SW-620
HCT-15 = tested on: HCT-15
OVCAR-5 = tested on: OVCAR-5
UACC-257 = tested on: UACC-257
CCRF-CEM = tested on: CCRF-CEM
MDA-MB-231 = tested on: MDA-MB-231
OVCAR-8 = tested on: OVCAR-8
UO-31 = tested on: UO-31
NCI-H23 = tested on: NCI-H23
SR = tested on: SR
COLO 205 = tested on: COLO 205
U-251 = tested on: U-251
SK-MEL-5 = tested on: SK-MEL-5
EKVX = tested on: EKVX
NCI-H226 = tested on: NCI-H226
ACHN = tested on: ACHN
UACC-62 = tested on: UACC-62
HL-60 = tested on: HL-60
HOP-62 = tested on: HOP-62
A549 = tested on: A549
RXF 393 = tested on: RXF 393
KM12 = tested on: KM12
TK-10 = tested on: TK-10
OVCAR-4 = tested on: OVCAR-4
SNB-75 = tested on: SNB-75
SN12C = tested on: SN12C
LOX IMVI = tested on: LOX IMVI
CAKI-1 = tested on: CAKI-1

Q: `COC(=O)[C@@]12CC[C@]1(C(=O)OC)C1C(C)=CC(=O)O[C@@]12C` (some centres undefined) was tested. Which GI50 (SNB-19) did it give?
A: > 100 µM (inactive)

Q: And the GI50 (NCI/ADR-RES)?
A: > 100 µM (inactive)

Q: And the GI50 (OVCAR-3)?
A: > 100 µM (inactive)

Q: What about the GI50 (PC-3) of the same compound?
A: > 100 µM (inactive)

Q: What about the GI50 (SK-OV-3) of the same compound?
A: > 100 µM (inactive)

Q: And the GI50 (HCC 2998)?
A: > 100 µM (inactive)

Q: And the GI50 (NCI-H522)?
A: > 100 µM (inactive)

Q: And the GI50 (IGROV-1)?
A: > 100 µM (inactive)

Q: What about the GI50 (DU-145) of the same compound?
A: > 100 µM (inactive)

Q: And the GI50 (MOLT-4)?
A: > 100 µM (inactive)

Q: And the GI50 (BT-549)?
A: > 100 µM (inactive)

Q: And the GI50 (Hs-578T)?
A: > 100 µM (inactive)

Q: And the GI50 (T47D)?
A: > 100 µM (inactive)

Q: What about the GI50 (MCF7) of the same compound?
A: > 100 µM (inactive)

Q: And the GI50 (HT-29)?
A: > 100 µM (inactive)

Q: And the GI50 (HCT-116)?
A: > 100 µM (inactive)

Q: What about the GI50 (HOP-92) of the same compound?
A: > 100 µM (inactive)

Q: And the GI50 (SK-MEL-28)?
A: > 100 µM (inactive)

Q: And the GI50 (M14)?
A: > 100 µM (inactive)

Q: What about the GI50 (K562) of the same compound?
A: > 100 µM (inactive)

Q: And the GI50 (RPMI-8226)?
A: > 100 µM (inactive)

Q: And the GI50 (MDA-MB-435)?
A: > 100 µM (inactive)

Q: And the GI50 (Malme-3M)?
A: > 100 µM (inactive)

Q: And the GI50 (SF-295)?
A: > 100 µM (inactive)

Q: And the GI50 (NCI-H460)?
A: > 100 µM (inactive)

Q: What about the GI50 (MDA-N) of the same compound?
A: > 100 µM (inactive)

Q: What about the GI50 (SF-539) of the same compound?
A: > 100 µM (inactive)

Q: What about the GI50 (SF-268) of the same compound?
A: > 100 µM (inactive)

Q: What about the GI50 (786-0) of the same compound?
A: > 100 µM (inactive)

Q: What about the GI50 (SW-620) of the same compound?
A: > 100 µM (inactive)

Q: What about the GI50 (HCT-15) of the same compound?
A: > 100 µM

Q: What about the GI50 (OVCAR-5) of the same compound?
A: > 100 µM (inactive)

Q: And the GI50 (UACC-257)?
A: > 100 µM (inactive)

Q: And the GI50 (CCRF-CEM)?
A: > 100 µM (inactive)

Q: And the GI50 (MDA-MB-231)?
A: > 100 µM (inactive)

Q: What about the GI50 (OVCAR-8) of the same compound?
A: > 100 µM (inactive)

Q: And the GI50 (UO-31)?
A: > 100 µM (inactive)

Q: What about the GI50 (NCI-H23) of the same compound?
A: > 100 µM (inactive)

Q: What about the GI50 (SR) of the same compound?
A: > 100 µM (inactive)

Q: And the GI50 (COLO 205)?
A: > 100 µM (inactive)

Q: And the GI50 (U-251)?
A: > 100 µM (inactive)

Q: And the GI50 (SK-MEL-5)?
A: > 100 µM (inactive)

Q: And the GI50 (EKVX)?
A: > 100 µM (inactive)

Q: What about the GI50 (NCI-H226) of the same compound?
A: > 100 µM (inactive)

Q: What about the GI50 (ACHN) of the same compound?
A: > 100 µM (inactive)

Q: What about the GI50 (UACC-62) of the same compound?
A: > 100 µM (inactive)

Q: What about the GI50 (HL-60) of the same compound?
A: > 100 µM (inactive)

Q: And the GI50 (HOP-62)?
A: > 100 µM (inactive)

Q: What about the GI50 (A549) of the same compound?
A: > 100 µM (inactive)

Q: What about the GI50 (RXF 393) of the same compound?
A: > 100 µM (inactive)

Q: And the GI50 (KM12)?
A: > 100 µM (inactive)

Q: And the GI50 (TK-10)?
A: > 100 µM (inactive)

Q: And the GI50 (OVCAR-4)?
A: > 100 µM (inactive)

Q: What about the GI50 (SNB-75) of the same compound?
A: > 100 µM (inactive)

Q: What about the GI50 (SN12C) of the same compound?
A: > 100 µM (inactive)

Q: And the GI50 (LOX IMVI)?
A: > 100 µM (inactive)

Q: `CC(Br)C(=O)NN1C2=C(Nc3ccccc31)c1cccc3cccc2c13` (centres undefined) was tested. Which GI50 (SNB-19) did it give?
A: > 100 µM (inactive)

Q: What about the GI50 (NCI/ADR-RES) of the same compound?
A: 65.2 µM (inactive)

Q: And the GI50 (OVCAR-3)?
A: 49.3 µM (inactive)

Q: What about the GI50 (PC-3) of the same compound?
A: > 100 µM (inactive)

Q: And the GI50 (HCC 2998)?
A: 13.5 µM (inactive)

Q: What about the GI50 (NCI-H522) of the same compound?
A: 92 µM (inactive)

Q: And the GI50 (IGROV-1)?
A: 34.4 µM (inactive)

Q: What about the GI50 (DU-145) of the same compound?
A: > 100 µM (inactive)

Q: And the GI50 (MOLT-4)?
A: 36.6 µM (inactive)

Q: And the GI50 (BT-549)?
A: > 100 µM (inactive)

Q: What about the GI50 (Hs-578T) of the same compound?
A: 58.9 µM (inactive)

Q: What about the GI50 (T47D) of the same compound?
A: 2.29 µM (inactive)

Q: What about the GI50 (MCF7) of the same compound?
A: 34.5 µM (inactive)

Q: And the GI50 (HT-29)?
A: 49.1 µM (inactive)

Q: And the GI50 (HCT-116)?
A: > 100 µM (inactive)

Q: And the GI50 (SK-MEL-28)?
A: > 100 µM (inactive)

Q: What about the GI50 (M14) of the same compound?
A: > 100 µM (inactive)

Q: And the GI50 (K562)?
A: > 100 µM (inactive)

Q: And the GI50 (RPMI-8226)?
A: 48.4 µM (inactive)

Q: And the GI50 (MDA-MB-435)?
A: > 100 µM (inactive)

Q: What about the GI50 (Malme-3M) of the same compound?
A: > 100 µM (inactive)

Q: What about the GI50 (SF-295) of the same compound?
A: 39.3 µM (inactive)

Q: What about the GI50 (NCI-H460) of the same compound?
A: 49.4 µM (inactive)

Q: What about the GI50 (MDA-N) of the same compound?
A: 90.6 µM (inactive)

Q: And the GI50 (SF-539)?
A: > 100 µM (inactive)

Q: And the GI50 (SF-268)?
A: > 100 µM (inactive)

Q: And the GI50 (786-0)?
A: 45.9 µM (inactive)

Q: And the GI50 (SW-620)?
A: > 100 µM (inactive)

Q: And the GI50 (HCT-15)?
A: 66.1 µM

Q: What about the GI50 (OVCAR-5) of the same compound?
A: > 100 µM (inactive)

Q: And the GI50 (UACC-257)?
A: 48.2 µM (inactive)

Q: What about the GI50 (CCRF-CEM) of the same compound?
A: 61.4 µM (inactive)

Q: What about the GI50 (MDA-MB-231) of the same compound?
A: > 100 µM (inactive)

Q: What about the GI50 (OVCAR-8) of the same compound?
A: 55.8 µM (inactive)

Q: What about the GI50 (UO-31) of the same compound?
A: > 100 µM (inactive)

Q: And the GI50 (NCI-H23)?
A: > 100 µM (inactive)

Q: And the GI50 (SR)?
A: 41 µM (inactive)

Q: And the GI50 (COLO 205)?
A: 75.5 µM (inactive)

Q: What about the GI50 (U-251) of the same compound?
A: 41.5 µM (inactive)

Q: What about the GI50 (SK-MEL-5) of the same compound?
A: 62.1 µM (inactive)

Q: What about the GI50 (EKVX) of the same compound?
A: > 100 µM (inactive)

Q: And the GI50 (NCI-H226)?
A: > 100 µM (inactive)

Q: And the GI50 (ACHN)?
A: 31.2 µM (inactive)

Q: What about the GI50 (HL-60) of the same compound?
A: 57.5 µM (inactive)

Q: And the GI50 (HOP-62)?
A: 22 µM (inactive)

Q: And the GI50 (A549)?
A: 57.9 µM (inactive)

Q: What about the GI50 (CAKI-1) of the same compound?
A: 74 µM (inactive)

Q: What about the GI50 (RXF 393) of the same compound?
A: > 100 µM (inactive)

Q: What about the GI50 (KM12) of the same compound?
A: > 100 µM (inactive)

Q: What about the GI50 (TK-10) of the same compound?
A: 96.4 µM (inactive)

Q: What about the GI50 (SNB-75) of the same compound?
A: 40.9 µM (inactive)

Q: And the GI50 (SN12C)?
A: > 100 µM (inactive)

Q: And the GI50 (LOX IMVI)?
A: 41.4 µM (inactive)
